According to patent US20240124412A1, “IKAROS ZINC FINGER FAMILY DEGRADERS AND USES THEREOF” (Gilead Sciences, Inc., priority 2021, published 2024):
Like-named read-outs stand apart in the source and are kept apart here.

Key:
[1] = target: T1, IKZF2 (Homo sapiens, UniProt Q96SW2+Q9UKS7); test: HiBiT protein tagging assay, in vitro IKZF2 degradation (HEK293); format: cell-based
T1 construct: expressed in transfected cells
How it was run: (§1)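 Flp-In T-REx HEK293 pools stably expressing C-terminal HiBiT-tagged IKZF1 or IKZF2 were induced overnight with 1 μg/ml doxycycline. Cells were then treated with serially diluted compound for 18-24 hr at 37 °C and read by Nano-Glo lytic luminescence. Data were normalized to 0.5% DMSO as POC; EC50 and Dmax (maximum degradation at highest concentration tested) reported.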

[2] = target: T2, IKZF1 (Homo sapiens, UniProt Q13422+Q96SW2); test: HiBiT protein tagging assay, in vitro IKZF1 degradation (HEK293); format: cell-based; conditions: for Dmax: read-out: IKZF1 Dmax (maximum degradation at the highest concentration tested)
T2 construct: expressed in transfected cells
How it was run: as §1

[3] = HEK293, HiBiT assay, HEK293, 18-24 hr incubation, normalized to DMSO control; read-out: IKZF2 Dmax (maximum degradation at the highest concentration tested)
[4] = HiBiT assay, HEK293, 18-24 hr incubation, normalized to DMSO control; read-out: IKZF2 EC50
[5] = HEK293, 18-24 hr incubation, normalized to DMSO control, read-out: IKZF1 EC50
[6] = HEK293, 18-24 hr incubation, normalized to DMSO control

T1 sequence (Q9UKS7 1-500 isoform Q9UKS7-2): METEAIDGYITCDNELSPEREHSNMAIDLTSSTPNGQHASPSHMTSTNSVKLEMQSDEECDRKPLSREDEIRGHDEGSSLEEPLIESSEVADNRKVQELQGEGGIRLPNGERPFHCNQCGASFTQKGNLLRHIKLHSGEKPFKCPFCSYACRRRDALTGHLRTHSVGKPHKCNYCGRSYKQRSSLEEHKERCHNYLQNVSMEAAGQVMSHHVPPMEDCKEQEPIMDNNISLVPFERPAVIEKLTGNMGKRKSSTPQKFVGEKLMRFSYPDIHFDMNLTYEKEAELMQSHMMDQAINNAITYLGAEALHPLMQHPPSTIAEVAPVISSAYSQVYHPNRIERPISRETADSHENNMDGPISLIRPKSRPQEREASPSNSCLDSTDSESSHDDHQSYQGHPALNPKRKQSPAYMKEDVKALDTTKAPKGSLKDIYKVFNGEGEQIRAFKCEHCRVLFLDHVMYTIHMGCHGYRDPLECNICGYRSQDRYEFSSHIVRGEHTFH
T1 sequence (Q96SW2 whole entry): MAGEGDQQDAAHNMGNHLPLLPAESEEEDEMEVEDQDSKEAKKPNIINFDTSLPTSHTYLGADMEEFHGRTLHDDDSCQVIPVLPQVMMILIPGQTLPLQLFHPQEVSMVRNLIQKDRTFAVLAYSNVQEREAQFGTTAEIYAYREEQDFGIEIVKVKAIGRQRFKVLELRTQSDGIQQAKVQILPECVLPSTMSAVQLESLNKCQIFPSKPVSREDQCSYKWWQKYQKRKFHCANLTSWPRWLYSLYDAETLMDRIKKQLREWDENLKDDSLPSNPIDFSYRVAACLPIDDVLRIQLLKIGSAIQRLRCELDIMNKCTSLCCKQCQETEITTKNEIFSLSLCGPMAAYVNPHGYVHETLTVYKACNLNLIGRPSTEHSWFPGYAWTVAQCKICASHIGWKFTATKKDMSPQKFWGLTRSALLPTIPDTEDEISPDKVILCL
T1 sequence (Q16531 whole entry partner): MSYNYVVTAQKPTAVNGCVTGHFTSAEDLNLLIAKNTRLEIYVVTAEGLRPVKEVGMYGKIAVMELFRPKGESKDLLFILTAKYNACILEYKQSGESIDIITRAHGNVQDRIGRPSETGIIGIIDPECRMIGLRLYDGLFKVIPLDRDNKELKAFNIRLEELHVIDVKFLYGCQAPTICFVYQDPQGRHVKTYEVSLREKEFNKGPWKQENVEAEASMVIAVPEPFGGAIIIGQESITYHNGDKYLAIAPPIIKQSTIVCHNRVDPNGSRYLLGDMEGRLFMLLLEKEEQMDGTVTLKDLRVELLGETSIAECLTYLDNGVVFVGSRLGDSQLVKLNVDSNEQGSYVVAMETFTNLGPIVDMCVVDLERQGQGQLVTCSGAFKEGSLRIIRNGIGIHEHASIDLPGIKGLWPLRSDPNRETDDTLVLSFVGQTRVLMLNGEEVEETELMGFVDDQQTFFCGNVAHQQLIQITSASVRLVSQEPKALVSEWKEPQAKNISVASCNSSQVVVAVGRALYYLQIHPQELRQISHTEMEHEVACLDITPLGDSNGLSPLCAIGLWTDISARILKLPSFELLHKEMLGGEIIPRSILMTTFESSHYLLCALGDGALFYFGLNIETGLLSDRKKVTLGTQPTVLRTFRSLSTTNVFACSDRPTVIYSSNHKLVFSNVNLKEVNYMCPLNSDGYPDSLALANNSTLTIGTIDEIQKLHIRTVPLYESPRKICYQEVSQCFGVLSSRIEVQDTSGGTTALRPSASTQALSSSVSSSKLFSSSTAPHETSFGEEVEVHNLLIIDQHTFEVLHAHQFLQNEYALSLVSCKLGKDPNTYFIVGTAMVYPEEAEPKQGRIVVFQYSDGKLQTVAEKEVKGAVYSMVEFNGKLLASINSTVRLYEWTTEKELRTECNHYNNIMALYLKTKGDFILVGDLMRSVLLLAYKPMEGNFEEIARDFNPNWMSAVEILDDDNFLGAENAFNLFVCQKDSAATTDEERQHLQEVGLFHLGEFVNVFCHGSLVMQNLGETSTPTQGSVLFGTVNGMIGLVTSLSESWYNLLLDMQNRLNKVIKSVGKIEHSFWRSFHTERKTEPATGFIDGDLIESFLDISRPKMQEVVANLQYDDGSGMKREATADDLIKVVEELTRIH
T2 sequence (Q13422 whole entry): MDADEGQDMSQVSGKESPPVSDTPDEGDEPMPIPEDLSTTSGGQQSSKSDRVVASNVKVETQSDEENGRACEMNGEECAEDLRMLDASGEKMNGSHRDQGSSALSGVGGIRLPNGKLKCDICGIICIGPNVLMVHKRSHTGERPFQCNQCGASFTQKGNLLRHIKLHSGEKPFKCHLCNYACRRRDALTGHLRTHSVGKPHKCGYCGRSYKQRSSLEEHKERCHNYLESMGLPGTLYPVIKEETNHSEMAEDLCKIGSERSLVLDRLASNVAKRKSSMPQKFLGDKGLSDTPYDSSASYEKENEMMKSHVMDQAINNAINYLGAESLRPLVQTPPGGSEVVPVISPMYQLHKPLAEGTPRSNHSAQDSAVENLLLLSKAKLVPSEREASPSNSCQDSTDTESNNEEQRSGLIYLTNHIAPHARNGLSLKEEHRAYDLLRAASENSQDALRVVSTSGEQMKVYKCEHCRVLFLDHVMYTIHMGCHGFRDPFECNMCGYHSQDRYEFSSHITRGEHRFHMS
T2 sequence (Q96SW2 whole entry): as the sequence (Q96SW2 whole entry) above
T2 sequence (Q16531 whole entry partner): as the sequence (Q16531 whole entry partner) above

Compound | Dmax [1, 3] [%] | DC50 [1, 4] [nM] | DC50 [2, 5] [nM] | Dmax [2, 6] [%] | DC50 ([1]; read-out: IKZF2 EC50; HiBiT assay, HEK293, 18-24 hr incubation, normalized to DMSO control) [nM] | DC50 ([2]; read-out: IKZF1 EC50, HEK293, 18-24 hr incubation, normalized to DMSO control) [nM]
O=C1CCC(N2Cc3cc(CN[C@H]4CCCC[C@@H]4O)ccc3C2=O)C(=O)N1 (stereo partly drawn) [Example 38, 3-(5-((((1S,2S)-2-hydroxycyclohexyl)amino)methyl)-1-oxoisoindolin-2-yl)piperidine-2,6-dione] | 21 | 3300 | > 10000 |  |  | 
O=C1CCC(N2Cc3cc(CNC4CCN(c5ccncc5)CC4)ccc3C2=O)C(=O)N1 (stereo not drawn) [Example 37, 3-(1-oxo-5-(((1-(pyridin-4-yl)piperidin-4-yl)amino)methyl)isoindolin-2-yl)piperidine-2,6-dione] | 76 | 1000 | 667 | 56 |  | 
O=C1CCC(N2Cc3cc(CNC4(C5CC5)CCCCC4)ccc3C2=O)C(=O)N1 (stereo not drawn) [Example 150, 3-(5-(((1-cyclopropylcyclohexyl)amino)methyl)-1-oxoisoindolin-2-yl)piperidine-2,6-dione] | 47 | 445 | > 10000 |  |  | 
O=C1CCC(N2Cc3cc(CN[C@@H]4CCCN(C(=O)c5ccccc5)C4)ccc3C2=O)C(=O)N1 (stereo partly drawn) [Example 24, 3-(5-((((R)-1-benzoylpiperidin-3-yl)amino)methyl)-1-oxoisoindolin-2-yl)piperidine-2,6-dione] | 62 | 2000 | 871 | 36 |  | 
CO[C@H]1CCCC[C@H]1NCc1ccc2c(c1)CN(C1CCC(=O)NC1=O)C2=O (stereo partly drawn) [Example 107] | 28 | 265 | 158 | 38 |  | 
COCC1(NCc2ccc3c(c2)CN(C2CCC(=O)NC2=O)C3=O)CCCCC1 (stereo not drawn) [Example 154, 3-(5-(((1-(methoxymethyl)cyclohexyl)amino)methyl)-1-oxoisoindolin-2-yl)piperidine-2,6-dione] | 47 | 293 | > 1000 |  |  | 
C[C@H]1CCCC[C@@H]1NCc1ccc2c(c1)CN(C1CCC(=O)NC1=O)C2=O (stereo partly drawn) [Example 102] | 69 | 220 | 164 | 23 |  | 
O=C1CCC(N2Cc3cc(CN[C@@H]4CCCC[C@H]4CO)ccc3C2=O)C(=O)N1 (stereo partly drawn) [Example 73, 3-(5-((((1R,2R)-2-(hydroxymethyl)cyclohexyl)amino)methyl)-1-oxoisoindolin-2-yl)piperidine-2,6-dione] | 31 | 1200 | 5800 | 34 |  | 
O=C1CCC(N2Cc3cc(CN[C@H](CO)Cc4ccccc4)ccc3C2=O)C(=O)N1 (stereo partly drawn) [Example 56] | 22 | 525 | 222 | 23 |  | 
O=C1CCC(N2Cc3cc(CNC4(c5ccc(F)cc5)CCCCC4)ccc3C2=O)C(=O)N1 (stereo not drawn) [Example 153, 3-(5-(((1-(4-fluorophenyl)cyclohexyl)amino)methyl)-1-oxoisoindolin-2-yl)piperidine-2,6-dione] | 36 |  |  |  | 122 | > 1000
O=C1CCC(N2Cc3cc(CN[C@@H]4CCCC[C@H]4Cc4ccccc4)ccc3C2=O)C(=O)N1 (stereo partly drawn) [Example 67] | 75 | 160 | 46 | 73 |  | 
O=C1CCC(N2Cc3cc(CN[C@@H]4C[C@@H]5CC[C@H]4C5)ccc3C2=O)C(=O)N1 (stereo partly drawn) [Example 71, 3-(5-((((1S,2R,4R)-bicyclo[2.2.1]heptan-2-yl)amino)methyl)-1-oxoisoindolin-2-yl)piperidine-2,6-dione] | 36 | 297 | 170 | 33 |  | 
CC1(C)C[C@]2(CC[C@H](NCc3ccc4c(c3)CN(C3CCC(=O)NC3=O)C4=O)CC2)CO1 (stereo partly drawn) [Example 117] | 88 | 198 | 216 | 49 |  | 
O=C1CCC(N2Cc3cc(CN[C@H]4C[C@H]5CC[C@@H]4C5)ccc3C2=O)C(=O)N1 (stereo partly drawn) [Example 72] | 23 | 389 | > 10000 |  |  | 
O=C1CCC(N2Cc3cc(CN[C@@H]4CCC[C@H](C(=O)c5ccccc5)C4)ccc3C2=O)C(=O)N1 (stereo partly drawn) [Example 129] | 60 | 193 | 113 | 60 |  | 
C[C@H]1CC[C@H](NCc2ccc3c(c2)CN(C2CCC(=O)NC2=O)C3=O)CC1 (stereo partly drawn) [Example 47] | 82 | 182 | 189 | 41 |  | 
O=C1CCC(N2Cc3cc(CN[C@H]4CC5CCC4CC5)ccc3C2=O)C(=O)N1 (stereo partly drawn) [Example 95, 3-(5-((((S)-bicyclo[2.2.2]octan-2-yl)amino)methyl)-1-oxoisoindolin-2-yl)piperidine-2,6-dione] | 49 | 361 | > 10000 |  |  | 

More lines, in order of falling DC50 [1, 4], values ahead:

Dmax [1, 3] [%] | DC50 [1, 4] [nM] | DC50 [2, 5] [nM] | Dmax [2, 6] [%] | Compound | DC50 ([1]; read-out: IKZF2 EC50; HiBiT assay, HEK293, 18-24 hr incubation, normalized to DMSO control) [nM] | DC50 ([2]; read-out: IKZF1 EC50, HEK293, 18-24 hr incubation, normalized to DMSO control) [nM]
90 | 144 | 184 | 51 | CO[C@H]1CC[C@H](NCc2ccc3c(c2)CN(C2CCC(=O)NC2=O)C3=O)CC1 (stereo partly drawn) [Example 76] |  | 
55 | 143 | 131 | 26 | O=C1CCC(N2Cc3cc(CNC4CCCC4)ccc3C2=O)C(=O)N1 (stereo not drawn) [Example 8] |  | 
76 | 139 | 127 | 42 | C[C@H]1CC[C@@H](NCc2ccc3c(c2)CN(C2CCC(=O)NC2=O)C3=O)CC1 (stereo partly drawn) [Example 89] |  | 
97 | 138 | 48 | 97 | O=C1CCC(N2Cc3cc(CN[C@@H]4CCCN(Cc5ccccn5)C4)ccc3C2=O)C(=O)N1 (stereo partly drawn) [Example 130, 3-(1-oxo-5-((((R)-1-(pyridin-2-ylmethyl)piperidin-3-yl)amino)methyl)isoindolin-2-yl)piperidine-2,6-dione] |  | 
35 | 115 | > 1000 |  | CC[C@@H]1CCCC[C@H]1NCc1ccc2c(c1)CN(C1CCC(=O)NC1=O)C2=O (stereo partly drawn) [Example 149] |  | 
69 | 106 | 84 | 42 | O=C1CCC(N2Cc3cc(CNC4CCC5(CCCCC5)CC4)ccc3C2=O)C(=O)N1 (stereo not drawn) [Example 83] |  | 
80 | 104 | 53 | 70 | O=C1CCC(N2Cc3cc(CNC4CCC(F)(F)CC4)ccc3C2=O)C(=O)N1 (stereo not drawn) [Example 7, 3-(5-(((4,4-difluorocyclohexyl)amino)methyl)-1-oxoisoindolin-2-yl)piperidine-2,6-dione] |  | 
92 | 95 | 30 | 88 | O=C1CCC(N2Cc3cc(CN[C@@H]4CCC[C@H](Nc5ccccc5)C4)ccc3C2=O)C(=O)N1 (stereo partly drawn) [Example 90] |  | 
87 | 87 | 155 | 28 | CC1CCC(C)(NCc2ccc3c(c2)CN(C2CCC(=O)NC2=O)C3=O)CC1 (stereo not drawn) [Example 147] |  | 
90 | 75 | 7 | 95 | O=C1CCC(N2Cc3cc(CN[C@@H]4CCC[C@H](OCc5ccccc5)C4)ccc3C2=O)C(=O)N1 (stereo partly drawn) [Example 112] |  | 
81 | 67 | 50 | 66 | O=C1CCC(N2Cc3cc(CNC4CCC5(CC4)CC5)ccc3C2=O)C(=O)N1 (stereo not drawn) [Example 58] |  | 
92 | 62 | 91 | 69 | CC1(C)CCCC(NCc2ccc3c(c2)CN(C2CCC(=O)NC2=O)C3=O)C1 (stereo not drawn) [Example 131] |  | 
86 | 61 | 55 | 60 | CC1(C)CCC(NCc2ccc3c(c2)CN(C2CCC(=O)NC2=O)C3=O)CC1 (stereo not drawn) [Example 140] |  | 
93 | 46 | 90 | 85 | COC[C@@H]1CCCC[C@@H]1NCc1ccc2c(c1)CN(C1CCC(=O)NC1=O)C2=O (stereo partly drawn) [Example 158, 3-(5-((((1S,2R)-2-(methoxymethyl)cyclohexyl)amino)methyl)-1-oxoisoindolin-2-yl)piperidine-2,6-dione] |  | 
79 | 46 | 64 | 55 | O=C1CCC(N2Cc3cc(CNC4CCC5(CCCC5)CC4)ccc3C2=O)C(=O)N1 (stereo not drawn) [Example 84] |  | 
85 | 41 | 16 | 61 | O=C1CCC(N2Cc3cc(CN[C@@H]4CCC[C@H](Oc5ccccc5)C4)ccc3C2=O)C(=O)N1 (stereo partly drawn) [Example 92] |  | 
96 | 35 | 58 | 92 | C[C@@]1(NCc2ccc3c(c2)CN(C2CCC(=O)NC2=O)C3=O)CCCN(Cc2ccccc2)C1 (stereo partly drawn) [Example 156, 3-(5-((((R)-1-benzyl-3-methylpiperidin-3-yl)amino)methyl)-1-oxoisoindolin-2-yl)piperidine-2,6-dione] |  | 
96 | 16 | 26 | 89 | CO[C@@H]1CCCC[C@@H]1NCc1ccc2c(c1)CN(C1CCC(=O)NC1=O)C2=O (stereo partly drawn) [Example 108] |  | 
97 | 7 | 1 | 97 | O=C1CCC(N2Cc3cc(CN[C@@H]4CCCN(Cc5ccccc5Cl)C4)ccc3C2=O)C(=O)N1 (stereo partly drawn) [Example 26, 3-(5-((((R)-1-(2-chlorobenzyl)piperidin-3-yl)amino)methyl)-1-oxoisoindolin-2-yl)piperidine-2,6-dione] |  | 
97 | 3 | 2 | 97 | O=C1CCC(N2Cc3cc(CN[C@H]4CCCC[C@H]4OCc4ccccc4)ccc3C2=O)C(=O)N1 (stereo partly drawn) [Example 120] |  | 
